We go through 2 compounds from ChEMBL document CHEMBL3639364, “Preparation method of dihydroindene amide compounds, their pharmaceutical compositions containing compounds thereof and use as protein kinases inhibitor” (2014).

As a reminder, the IC50 is the point on the concentration scale where inhibition reaches its midpoint. A high value points to lower potency.

In assay [1] the target is Mast/stem cell growth factor receptor Kit (Homo sapiens, UniProt P10721). Put plainly: (§1) Kinase buffer: 62.5 mM HEPES, pH 7.5; 0.001875% Brij-35; 12.5 mM MgCl2; 2.5 mM DTT. Stop buffer: 100 mM HEPES, pH 7.5; 0.015% Brij-35; 0.2% coating agent 3; 50 mM EDTA. Preparation of kinase solution: Kinase solution was obtained by dissolving kinases in the kinase buffer mentioned above. With regard to c-Kit kinase, the pre-activation treatments should be carried out as follows. 700 nM c-Kit, 2 mM ATP, 4 mM DTT and 10 mM MgCl2 were dissolved in kinase buffer. After being incubated at 28° C. for 15 minutes, the solution was added to the kinase buffer.
Mast/stem cell growth factor receptor Kit, sequence (P10721 whole entry): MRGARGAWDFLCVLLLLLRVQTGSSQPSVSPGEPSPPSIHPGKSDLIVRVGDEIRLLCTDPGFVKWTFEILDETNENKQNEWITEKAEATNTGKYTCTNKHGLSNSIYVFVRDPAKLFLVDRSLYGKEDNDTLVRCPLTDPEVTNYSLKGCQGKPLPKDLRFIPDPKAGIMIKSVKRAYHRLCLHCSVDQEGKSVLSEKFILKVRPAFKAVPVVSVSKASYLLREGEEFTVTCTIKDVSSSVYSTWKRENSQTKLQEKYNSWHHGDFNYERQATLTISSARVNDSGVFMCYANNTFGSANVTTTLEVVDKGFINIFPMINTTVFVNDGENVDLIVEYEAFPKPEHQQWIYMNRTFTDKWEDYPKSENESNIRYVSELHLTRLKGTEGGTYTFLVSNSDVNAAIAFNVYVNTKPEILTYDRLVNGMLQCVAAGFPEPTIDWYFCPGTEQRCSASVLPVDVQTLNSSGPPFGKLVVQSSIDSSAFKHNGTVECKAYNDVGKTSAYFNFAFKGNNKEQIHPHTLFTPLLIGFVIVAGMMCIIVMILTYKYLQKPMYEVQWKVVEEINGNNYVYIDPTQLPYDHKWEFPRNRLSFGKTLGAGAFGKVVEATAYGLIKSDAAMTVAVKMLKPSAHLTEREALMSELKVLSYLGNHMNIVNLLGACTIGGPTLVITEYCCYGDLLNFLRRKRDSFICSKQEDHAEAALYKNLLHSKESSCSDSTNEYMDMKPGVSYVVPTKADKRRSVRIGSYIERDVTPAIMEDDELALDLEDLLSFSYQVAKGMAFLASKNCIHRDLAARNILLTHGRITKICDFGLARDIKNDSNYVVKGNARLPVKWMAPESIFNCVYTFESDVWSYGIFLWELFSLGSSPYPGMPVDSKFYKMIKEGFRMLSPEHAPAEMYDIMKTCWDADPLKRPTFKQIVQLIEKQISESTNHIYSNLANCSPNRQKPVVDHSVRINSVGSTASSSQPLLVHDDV

For assay [2], the target named is Platelet-derived growth factor receptor beta (Homo sapiens, UniProt P09619). Described as §1.
Platelet-derived growth factor receptor beta, sequence (P09619 whole entry): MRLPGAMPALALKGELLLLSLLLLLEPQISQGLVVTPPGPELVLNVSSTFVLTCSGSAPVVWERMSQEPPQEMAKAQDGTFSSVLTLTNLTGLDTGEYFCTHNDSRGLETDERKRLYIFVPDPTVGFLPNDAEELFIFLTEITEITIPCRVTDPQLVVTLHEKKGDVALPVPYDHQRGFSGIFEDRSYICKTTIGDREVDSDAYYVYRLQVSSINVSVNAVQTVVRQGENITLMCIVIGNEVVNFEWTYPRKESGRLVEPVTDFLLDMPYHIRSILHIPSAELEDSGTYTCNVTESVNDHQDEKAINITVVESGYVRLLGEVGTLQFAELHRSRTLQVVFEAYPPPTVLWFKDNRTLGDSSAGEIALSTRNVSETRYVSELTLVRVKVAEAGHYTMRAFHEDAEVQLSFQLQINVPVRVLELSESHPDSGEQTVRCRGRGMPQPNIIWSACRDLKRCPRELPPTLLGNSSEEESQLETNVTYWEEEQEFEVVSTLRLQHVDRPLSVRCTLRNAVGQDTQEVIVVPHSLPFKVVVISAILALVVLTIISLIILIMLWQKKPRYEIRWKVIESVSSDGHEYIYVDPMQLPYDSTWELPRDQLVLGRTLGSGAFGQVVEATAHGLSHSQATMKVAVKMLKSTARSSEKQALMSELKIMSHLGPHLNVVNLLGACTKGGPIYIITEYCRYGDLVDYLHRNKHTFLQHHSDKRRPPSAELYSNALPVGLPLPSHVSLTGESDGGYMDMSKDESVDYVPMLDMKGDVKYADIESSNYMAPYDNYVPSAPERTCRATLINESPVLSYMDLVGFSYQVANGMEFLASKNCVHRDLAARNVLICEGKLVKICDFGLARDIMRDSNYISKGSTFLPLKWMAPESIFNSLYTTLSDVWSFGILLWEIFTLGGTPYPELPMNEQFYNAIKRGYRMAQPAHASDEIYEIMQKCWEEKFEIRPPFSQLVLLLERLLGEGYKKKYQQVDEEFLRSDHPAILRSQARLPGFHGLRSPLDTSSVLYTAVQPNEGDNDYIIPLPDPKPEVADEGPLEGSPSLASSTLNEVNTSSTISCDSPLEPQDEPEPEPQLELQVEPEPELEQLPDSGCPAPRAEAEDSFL

For the compound `CCN1CCN(C2CCc3cc(C(=O)Nc4ccc(C)c(Nc5nccc(-c6cccnc6)n5)c4)ccc32)CC1` (centres undefined), the values for the IC50 in assay [1] and in assay [2] were 26 nM and 15 nM, respectively.

Consider `Cc1ccc(NC(=O)c2ccc3c(c2)CCC3N2CC[C@@H](N(C)C)C2)cc1Nc1nccc(-c2cccnc2)n1` (some centres undefined), for which the IC50 is 32 nM in assay [1] and 21 nM in assay [2].
